These results are taken from patent US20240189312A1, “COMPOSITION FOR TREATING ACUTE BRAIN INJURY OR NEURODEGENERATIVE DISEASE, METHOD OF MAKING, AND USE THEREOF” (priority 2022, published 2024).

Data set [1] addresses CYP46A (Homo sapiens, UniProt Q9Y6A2). The settings on record: cited from earlier work.
The test system of data set [2] is primary cultured mouse cortical neurons. Nature of the data set: NMDA toxicity (neuronal loss, LDH release). The settings on record: MK-801 10 μM. The format is cell-based. How it is done:
(§1) Cultures of mouse primary cortical neurons were prepared as described previously and modified [Leng T D, Lin J, Sun H W, Zeng Z, O'Bryant Z, Inoue K, et al. Local anesthetic lidocaine inhibits TRPM7 current and TRPM7-mediated zinc toxicity. CNS Neurosci Ther 2015; 21: 32-9.]. The use of mice for neuronal cultures was approved by the Institutional Animal Care and Use Committee of Morehouse School of Medicine. Briefly, the brains of fetuses (embryonic day 16) were removed quickly from anesthetized pregnant Swiss mice and placed in cold Ca2+/Mg2+-free PBS. Cerebral cortices were dissected and incubated with 0.05% trypsin-EDTA for 10 min at 37° C., followed by trituration. Cells were plated in 35-mm poly-L-ornithine-coated culture dishes at a density of 1×10^6 cells. […]
(§2) LDH release was measured using a cytotoxicity detection kit (Cat. No. 11644793001, Roche Diagnostics) according to the manufacturer's instruction, as described in previous studies [Leng T D, Lin J, Sun H W, Zeng Z, O'Bryant Z, Inoue K, et al. Local anesthetic lidocaine inhibits TRPM7 current and TRPM7-mediated zinc toxicity. […] The absorbance at 492 and 620 nm was measured by spectrometer (SpectraMax Plus, Molecular devices, Sunnyvale, CA, USA). LDH release was determined based on subtracting absorbance at 620 nm from that at 492 nm.
In general terms: LDH leaks from cells whose membrane has failed.

For data set [3] the test system is unchanged. Nature of the data set: OGD toxicity (neuronal loss, LDH release). Format: cell-based. The conditions noted are these: MK-801. How it is done: as §1, §2
The subject of data set [4] is NMDA receptor. The conditions noted are these: cited from earlier work.
Data set [5] deals with select neurons. The conditions noted are these: cited from earlier work.
Data set [6] deals with MCAO induced ischemic brain injury. Description: MCAO ischemic stroke model, TTC staining. The format is in vivo, mice. The settings on record: ICV 40 μM stock, 1 μl, 3 h before 45 min MCAO, TTC at 24 h.
In data set [7] the target is CYP46A1 (Homo sapiens, UniProt Q9Y6A2). The conditions noted are these: cited from earlier work.
In data set [8] the test system is 5XFAD mice. Description: Alzheimer's disease model in 5XFAD mice. The settings on record: 5XFAD test mice.
Experimental: 5XFAD mice are obtained. 5XFAD transgenic mice express 5 human familial Alzheimer's disease (FAD) mutants in amyloid-beta precursor protein (APP) and presenilin 1 (PS1) driven by the Thy1 promoter. […] Experimental 5XFAD mice are obtained by crossing heterozygous transgenic mice with C57BL/6 wild-type breeders. Wild-type littermates are used as controls and randomly allotted to each experiment. Male mice are used in all experiments. All mice are housed in a standard animal facility with a 12 h alternating light/dark cycle.
Control mice are administered a placebo.
A Barns maze protocol is performed. Briefly, the apparatus is a revolvable white acrylic disc elevated from the floor with 18 holes equally spaced along the perimeter of the circle and positioned in a brightly light. One hole is selected as the escape target hole, and a dark escape chamber is placed under the target hole consistent for each trial. Mice are allowed to freely explore on the platform for 5 min without the escape chamber, and habituated to the escape chamber for 2 min on two consecutive days. In the training phase, a session of 2 trials is performed by each mouse. Each mouse is covered under a nontransparent cylinder placed in the center of the maze. After 15 s, the cylinder is gently removed to allow mouse to explore the maze for 180 s until the target hole is found. […] The maze and the escape chamber are wiped with 70% ethanol. The mouse is identified to find the target chamber when the back of the mice crossed the target hole. The mouse is considered to have entered the target chamber if the entire body is on the platform. The primary latency that mice took to find the target hole is documented for each trial. Two trials per day are performed for eight days. For the probe test, memory retention is assessed 5 days after the last training trial. The duration of the probe trial is 90 s. […] The position of the target hole is the same as that in the training period. The primary latency to find the target hole and time in the target quadrant is analyzed by Anymaze software.
A T maze protocol is performed. Briefly, before performing the task, the diet of mice is restricted daily to hold 80% to 85% of their primary body weight throughout the task. The T maze apparatus is placed in a quiet room, and light intensity is held at a constant level. During the training, a forced choice is followed by a free choice for each trial. In the forced-choice phase, a food pellet is placed in either the left or right choice arm. The door to the choice arm with food pellet is opened, while the other choice arm is closed. The mouse is allowed to consume the pellet. When the pellet is consumed, the mouse is returned to the start arm. After the forced choice is completed, the free choice is initialized. During the free choice, all doors are open; the mouse is allowed to freely enter one of two arms. If the mouse entered the same arm as in the forced-choice phase, the trial is considered to result in an “error,” and the pellet is removed. If the mouse entered the opposite arm as in the forced-choice phase, the trial is considered to have a “correct” result, and the mouse is rewarded with a food pellet. Following each session, the apparatus is cleaned with 70% ethanol. Six consecutive trials are performed in a session per day. The percentage of correct responses is calculated in each session.
Motor activity and anxiety is studied in the open field test. […] The mouse activity is monitored under an infrared camera for 5 min.

The structures appear in SMILES notation. Entries after “also recorded” stand apart in the source; their conditions may differ.

Sequence of CYP46A (Q9Y6A2 whole entry): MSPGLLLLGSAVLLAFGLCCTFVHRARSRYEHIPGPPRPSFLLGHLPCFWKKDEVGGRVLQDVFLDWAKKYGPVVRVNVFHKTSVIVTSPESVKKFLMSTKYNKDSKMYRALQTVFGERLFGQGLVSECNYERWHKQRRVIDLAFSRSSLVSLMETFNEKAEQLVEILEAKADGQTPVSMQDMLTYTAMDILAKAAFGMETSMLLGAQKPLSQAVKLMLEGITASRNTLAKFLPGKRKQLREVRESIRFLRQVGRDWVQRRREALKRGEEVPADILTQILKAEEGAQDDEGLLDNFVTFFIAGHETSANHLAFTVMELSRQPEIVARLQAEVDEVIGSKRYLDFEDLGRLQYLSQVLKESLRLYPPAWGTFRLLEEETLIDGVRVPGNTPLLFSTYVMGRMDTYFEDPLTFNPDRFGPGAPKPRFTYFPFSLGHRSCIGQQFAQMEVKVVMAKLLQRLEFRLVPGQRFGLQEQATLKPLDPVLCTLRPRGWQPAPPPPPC
Sequence of CYP46A1 (Q9Y6A2 whole entry, species assumed): as the sequence (Q9Y6A2 whole entry) above

As for `N[C@@H]1C[C@H]1c1ccccc1` (racemic) [tranylcypromine], the “affinity for CYP46A” value in data set [1] is listed as “nanomolar affinity”.

Consider `C[C@]12N[C@H](Cc3ccccc31)c1ccccc12` [MK-801, dizocilpine], for which the “inhibition of 24S-HC increased NMDA toxicity” value is “completely inhibited” in data set [2] and “completely abolishes the toxicity of 24S-HC” in data set [2] (listed as MK801). In addition, the “inhibition of 24S-HC increased OGD toxicity” value in data set [3] was “completely inhibited”; in data set [3] (listed as MK801), “completely abolishes the toxicity of 24S-HC”. For the same compound, the “Aβ[1-42]-triggered excitotoxicity via the NMDA receptor” value in data set [4] was “can be prevented”. In data set [5], the “cytoplasmic vacuoles in select neurons” value was “causes cytoplasmic vacuoles in select neurons”.

For `Clc1ccccc1C(c1ccccc1)(c1ccccc1)n1ccnc1` [clotrimazole], in data set [1], the “affinity for CYP46A” value is given as “nanomolar affinity”.

Take `S=C(NC1CCCCC1)N1CCC(c2cnc[nH]2)CC1` [thioperamide]: the “affinity for CYP46A” value in data set [1] is “nanomolar affinity”.

Take `C[C@@H](c1ncncc1F)[C@](O)(Cn1cncn1)c1ccc(F)cc1F` [voriconazole]: in data set [6], the “ischemic brain injury (infarction, TTC staining)” value is reported as “reduces ischemic brain injury”. The “ischemic brain injury (infarction, TTC staining)” value in data set [6] (listed as Vori) is on record as “dramatically reduced ischemic brain injury; also recorded: protects against 45 min MCAO induced ischemic brain injury”. For the same compound, the “affinity for CYP46A” value in data set [1] is listed as “nanomolar affinity”. In addition, the “synthesis of 24S-HC in vitro” value in data set [7] (at ˜1 M (so in the source)) is recorded as “almost completely inhibit”. Also, in data set [7], the “inhibitor of CYP46A1” value is recorded as “potent inhibitor”. In data set [8], the Aβ deposition entry is “attenuate Aβ deposition”, the cognitive functions result is listed as “improve cognitive functions”, the microgliosis entry is given as “decrease microgliosis” and the neuroinflammation result is recorded as “reduce neuroinflammation”. Also, the “synapse loss and neuronal loss” value in data set [8] is “reversed”.
